Among the data in PubChem BioAssay (NCI) are GI50 and TGI values, retold here.

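Results reflect a 48-hour exposure of cells in 96-well plates to compound at five concentrations. The concentration for 50% growth inhibition is given as GI50. Definition used: TGI = concentration required for complete inhibition of growth.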

Test systems include ACHN renal; RXF 393 renal; MDA-MB-231 breast; NCI-H522 lung; SNB-19 CNS; T-47D breast; SF-539 CNS; SR leukemia; MCF7 breast; IGROV1 ovarian.
Holding throughout (assay): NCI tumour cell line growth inhibition, 48 h

As to `COc1ccc(Cl)cc1Nc1nc(C(F)(F)F)ccc1C(=O)N/N=C/c1c(Cl)cccc1Cl`, the GI50 in the experiment with ACHN renal is 8.01 µM; with RXF 393 renal, 17.9 µM; with MDA-MB-231 breast, 14.5 µM; in the experiment with NCI-H522 lung it was 13.3 µM; in the experiment with SNB-19 CNS, 11.4 µM; with T-47D breast, 4.41 µM. Also, in the experiment on SF-539 CNS, the GI50 was 17.9 µM. The TGI is above 100 µM in the experiment on ACHN renal; 58.8 µM with RXF 393 renal; above 100 µM with MDA-MB-231 breast; above 100 µM in the experiment with NCI-H522 lung; above 100 µM in the experiment on SNB-19 CNS; above 100 µM with T-47D breast. Also, in the experiment with SF-539 CNS, the TGI was above 100 µM.
With `O=[N+]([O-])c1ccc(C(c2c[nH]c3ccccc23)c2c[nH]c3ccccc23)cc1`, the TGI stood at 21.5 µM in the experiment on ACHN renal; 29.3 µM in the experiment on MDA-MB-231 breast; 22.5 µM with SR leukemia; 7.4 µM in the experiment on MCF7 breast; 35.8 µM in the experiment with SNB-19 CNS; 7.07 µM with T-47D breast. The same compound returned a TGI in the experiment with SF-539 CNS of 30.6 µM.
`CC(=O)n1c(COS(C)(=O)=O)nc2ccccc21`: the TGI with ACHN renal, in the experiment on RXF 393 renal, in the experiment on MDA-MB-231 breast, with NCI-H522 lung, with IGROV1 ovarian and in the experiment with MCF7 breast was above 100 µM each time. Besides, the TGI with SNB-19 CNS, in the experiment on T-47D breast and in the experiment with SF-539 CNS was above 100 µM throughout.
Consider `COc1cc2c3c(n(C)c(=O)c2cc1OC)-c1cc2c(cc1/C3=C\CCCCCN)OCO2`, for which the GI50 in the experiment with ACHN renal is 0.289 µM; with RXF 393 renal, 7 µM; with MDA-MB-231 breast it was 2.5 µM; in the experiment on SR leukemia it was below 0.01 µM; in the experiment with NCI-H522 lung, 1.23 µM; in the experiment with IGROV1 ovarian, below 0.01 µM. Moreover, the GI50 is 2.49 µM in the experiment with SNB-19 CNS, 5.61 µM with T-47D breast and 1.96 µM in the experiment on SF-539 CNS. Besides, the TGI was 9.28 µM in the experiment with ACHN renal; 41 µM in the experiment on RXF 393 renal; 12.9 µM in the experiment with MDA-MB-231 breast; above 100 µM in the experiment with NCI-H522 lung; 1.34 µM with IGROV1 ovarian; 76.5 µM in the experiment on SNB-19 CNS. The TGI with T-47D breast was above 55.5 µM; in the experiment on SF-539 CNS it was 14.8 µM.
Regarding `O=c1oc2cc(OS(=O)(=O)c3ccc(F)cc3)ccc2c2c1CCCCC2`, the GI50 is above 100 µM in the experiment on ACHN renal; above 100 µM with MDA-MB-231 breast; above 100 µM in the experiment on SR leukemia; above 100 µM in the experiment with IGROV1 ovarian; above 100 µM in the experiment on SNB-19 CNS; 1.86 µM in the experiment with T-47D breast. Also, the GI50 in the experiment with SF-539 CNS is above 100 µM. Besides, the TGI in the experiment on ACHN renal, with MDA-MB-231 breast, in the experiment on SR leukemia, with IGROV1 ovarian, in the experiment with SNB-19 CNS and with T-47D breast was above 100 µM in each case. For the same compound, the TGI in the experiment on SF-539 CNS is above 100 µM.
As to `CCC[CH2][Sn-]([CH2]CCC)([CH2]CCC)[O]c1cc(Cl)c(Cl)cc1Cl`, the GI50 with ACHN renal is 0.19 µM; in the experiment with RXF 393 renal it was 0.196 µM; in the experiment with IGROV1 ovarian, 0.162 µM; in the experiment on MCF7 breast, 0.237 µM; in the experiment on SNB-19 CNS, 0.143 µM; in the experiment with T-47D breast, 0.137 µM. Moreover, in the experiment with SF-539 CNS, the GI50 is 0.267 µM. Further, the TGI in the experiment with ACHN renal turned out to be 0.339 µM; in the experiment on RXF 393 renal, 0.509 µM; in the experiment on IGROV1 ovarian it was 0.379 µM; in the experiment with MCF7 breast it was 0.887 µM; with SNB-19 CNS it was 0.445 µM; with T-47D breast, 0.35 µM. Moreover, the TGI with SF-539 CNS is 0.437 µM.
`COc1ccc(N=C2CSc3nnc(-c4cc(F)c(Cl)cc4Cl)n3N2)cc1`: the GI50 in the experiment with ACHN renal was 2.33 µM; in the experiment on MDA-MB-231 breast it was 1.41 µM; in the experiment with SR leukemia it was 0.33 µM; with NCI-H522 lung, 0.296 µM; with IGROV1 ovarian, 0.187 µM; in the experiment on MCF7 breast, 0.464 µM. Moreover, the values for the GI50 in the experiment on SNB-19 CNS, with T-47D breast and with SF-539 CNS were 0.776 µM, 4.03 µM and 1.05 µM, respectively. The TGI with ACHN renal was found to be 11.5 µM; in the experiment on MDA-MB-231 breast, 12.8 µM; with SR leukemia, 0.799 µM; with NCI-H522 lung, 0.885 µM; in the experiment with IGROV1 ovarian it was 0.595 µM; in the experiment on MCF7 breast, 19.8 µM. The TGI in the experiment with SNB-19 CNS came out at 18.9 µM; in the experiment with T-47D breast it was 32.7 µM; in the experiment on SF-539 CNS, 2.63 µM.
As for `O=C(Nc1ccc(N2CCNCC2)cc1)c1[nH]ncc1Nc1ncnc2sc3c(c12)CCC3`, the GI50 with ACHN renal is 0.181 µM; in the experiment on RXF 393 renal it was 0.394 µM; in the experiment with MDA-MB-231 breast it was 0.333 µM; in the experiment with SR leukemia it was 0.0638 µM; in the experiment with IGROV1 ovarian, 0.125 µM; with MCF7 breast, 0.166 µM. In addition, the figures for the GI50 with SNB-19 CNS, in the experiment with T-47D breast and in the experiment on SF-539 CNS were 0.274 µM, 0.852 µM and 0.399 µM, respectively. Further, the TGI in the experiment with ACHN renal came to 1.16 µM; in the experiment on RXF 393 renal, 1.89 µM; in the experiment with MDA-MB-231 breast it was 2.04 µM; with IGROV1 ovarian, 1.38 µM; in the experiment with MCF7 breast, 1.3 µM; with SNB-19 CNS, 1.69 µM. Moreover, the TGI in the experiment with T-47D breast came out at 3.53 µM; in the experiment on SF-539 CNS it was 1.81 µM.
`COc1cc2c(cc1OC)C(=O)/C(=C/c1cccc(OCC(=O)c3ccccc3)c1)C2`: the GI50 with ACHN renal was 26.7 µM; with RXF 393 renal it was 35.4 µM; in the experiment with MDA-MB-231 breast, 23.8 µM; with NCI-H522 lung it was 4.6 µM; in the experiment with IGROV1 ovarian, 5.79 µM; with MCF7 breast it was 5.83 µM. Further, the figures for the GI50 in the experiment with SNB-19 CNS, in the experiment on T-47D breast and with SF-539 CNS were 25.7 µM, 4.34 µM and 16.2 µM, respectively. Further, the TGI with ACHN renal was above 100 µM; in the experiment with RXF 393 renal it was above 100 µM; in the experiment with MDA-MB-231 breast it was above 100 µM; in the experiment on NCI-H522 lung, 50.5 µM; with IGROV1 ovarian, above 100 µM; in the experiment with MCF7 breast, above 100 µM. For the same compound, the TGI was above 100 µM with SNB-19 CNS, 68.8 µM with T-47D breast and 63.9 µM in the experiment with SF-539 CNS.
In the case of `N=C1C(c2nc(-c3ccc(Br)cc3)cs2)=C(O)CN1Cc1cccnc1`, the GI50 is 16.4 µM with ACHN renal; 7.98 µM in the experiment with RXF 393 renal; 15.9 µM with MDA-MB-231 breast; 17.3 µM with SR leukemia; 9.76 µM in the experiment with MCF7 breast; 40.1 µM with SNB-19 CNS. Besides, the GI50 is 4.89 µM in the experiment with T-47D breast and 15.5 µM in the experiment on SF-539 CNS. Besides, the TGI was 98.8 µM in the experiment on ACHN renal; 31.3 µM in the experiment with RXF 393 renal; 43.5 µM with MDA-MB-231 breast; 67.2 µM with SR leukemia; above 100 µM in the experiment on MCF7 breast; above 100 µM in the experiment on SNB-19 CNS. For the same compound, the TGI worked out at 56.1 µM with T-47D breast and 84.8 µM in the experiment with SF-539 CNS.
